Values quoted from earlier work as cited in patent publication US4542021A, “Antitumor compositions for non-injection administration” (Yamasa Shoyu Kabushiki Kaisha, priority 1978, dated 1985).

Details: in combination with a cytidinedeaminase inhibitor such as tetrahydrouridine; cited from earlier work

Compound: Nc1ccn([C@@H]2O[C@H](CO)[C@@H](O)[C@@H]2O)c(=O)n1 [ara-C, 1-β-D-arabinofuranosyl cytosine]
- effectiveness of oral administration: effective in combination with a cytidinedeaminase inhibitor such as tetrahydrouridine
